Test results published in patent publication US20260070945A1, “MACROCYCLIC IMMUNOMODULATORS” (Bristol-Myers Squibb Company, priority 2022, published 2026).
Where a SMILES comes first, the peptide text is derived from it. Bridges are numbered along the chain shown (N, C = ends). [ ]: non-standard residue; d: D form. The star is where a group is joined. ξ: configuration not given here. Phe(3-CF3) = N[C@@H](Cc1cccc(C(F)(F)F)c1)C(=O)O; Phe(4-COOH) = N[C@@H](Cc1ccc(C(=O)O)cc1)C(=O)O; Bip = N[C@@H](Cc1ccc(-c2ccccc2)cc1)C(=O)O; Phe(4-CN) = N#Cc1ccc(C[C@H](N)C(=O)O)cc1; NH(CH2)14COOH = O=C(O)CCCCCCCCCCCCCCN*; Phe(3-F) = N[C@@H](Cc1cccc(F)c1)C(=O)O; Phe(3-Me) = Cc1cccc(C[C@H](N)C(=O)O)c1; NH(CH2)12COOH = O=C(O)CCCCCCCCCCCCN*; Cyclopropanecarbonyl = O=C(C1CC1)*; Val(3-OH) = CC(C)(O)[C@H](N)C(=O)O; aIle = CC[C@@H](C)[C@H](N)C(=O)O; 4Pal = N[C@@H](Cc1ccncc1)C(=O)O; NMeE = CN[C@@H](CCC(=O)O)C(=O)O; Cha = N[C@@H](CC1CCCCC1)C(=O)O; Cit = NC(=O)NCCC[C@H](N)C(=O)O; Thr(3ξ) = CC(O)[C@H](N)C(=O)O; 12Ado = NCCCCCCCCCCCC(=O)O; Carboxymethyl = O=C(O)C*; NMeA = CN[C@@H](C)C(=O)O; Orn = NCCC[C@H](N)C(=O)O; Aun = NCCCCCCCCCCC(=O)O; Dab = NCC[C@H](N)C(=O)O; AEEA = NCCOCCOCC(=O)O; ξDab = NCCC(N)C(=O)O; Sar = CNCC(=O)O

Biological target: T1, PD-1/PD-L1 interaction (PE-labeled human PD-L1-Ig binding to Jurkat cell line over-expressing human PD-1) (Homo sapiens, UniProt Q15116)
T1 construct: expressed in transfected cells; host or cells: Jurkat
Experiment: Jurkat-PD-1 Cell Binding High-Content Screening Assay (CBA)
Settings: Jurkat-hPD-1 cells, PE-labeled PD-L1-Ig 20 nM final; read-out: Jurkat HPD1 PDL1 IC50
Outline: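 Jurkat-hPD-1 cells (8×10^3/well) in DMEM with 10% fetal calf serum were preincubated with compound for 2 h at 37 °C. PE-labeled PD-L1-Ig was then added at 20 nM final for 1 h. Cells were fixed in paraformaldehyde with Hoechst 33342, washed and imaged by high-content imaging.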

T1 sequence (Q15116 25-288): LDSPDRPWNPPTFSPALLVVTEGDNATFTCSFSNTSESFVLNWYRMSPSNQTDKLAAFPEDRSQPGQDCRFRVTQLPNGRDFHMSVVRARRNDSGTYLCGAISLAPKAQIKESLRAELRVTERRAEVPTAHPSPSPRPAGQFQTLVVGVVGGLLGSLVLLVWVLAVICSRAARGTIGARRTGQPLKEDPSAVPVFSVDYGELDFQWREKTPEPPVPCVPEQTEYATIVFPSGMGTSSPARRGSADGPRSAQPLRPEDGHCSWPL

Question: For `Cc1cccc(C[C@@H]2NC(=O)[C@H](CC(=O)O)NC(=O)[C@H](Cc3ccc(C(=O)O)cc3)NC(=O)[C@H](Cc3ccc(OCC(=O)O)cc3)NC(=O)CSC[C@@H](C(=O)NCCCCCCCCCCC(=O)O)NC(=O)[C@H](CCCNC(N)=O)NC(=O)[C@H](C(C)C)NC(=O)[C@H](CC3CCCCC3)NC(=O)[C@H](CCN)NC(=O)[C@@H](CC(C)C)NC(=O)[C@H](C)N(C)C(=O)[C@H](CCC(N)=O)NC(=O)[C@H](Cc3ccc(-c4ccccc4)cc3)NC(=O)[C@H](CC(C)C)NC2=O)c1` [Example 2246] ({CH2CO}-Y(Carboxymethyl)[Phe(4-COOH)]D[Phe(3-Me)]L[Bip]Q[NMeA][dL][Dab][Cha]V[Cit]C[Aun]-OH; thioether N-14), which IC50 is on record?
Answer: 16.1 nM

Question: Which IC50 does the source give for `CC[C@@H](C)[C@@H]1NC(=O)[C@H](Cc2ccc(-c3ccccc3)cc2)NC(=O)[C@H](C(C)C)NC(=O)[C@H](Cc2c[nH]c3ccccc23)NC(=O)[C@H](CC(=O)O)NC(=O)[C@H](Cc2ccc(O)cc2)NC(=O)[C@H](Cc2ccncc2)NC(=O)CSC[C@@H](C(=O)N[C@@H](CCN)C(=O)NCCCCCCCCCCC(=O)O)NC(=O)[C@H](C(C)O)NC(=O)[C@H](C(C)C)NC(=O)[C@H](CC2CCCCC2)NC(=O)[C@H](CCN)NC(=O)[C@@H](CC(C)C)NC(=O)[C@H](C)N(C)C1=O` (stereo partly drawn) [Example 2036] ({CH2CO}-[4Pal]YDWV[Bip][aIle][NMeA][dL][Dab][Cha]V[Thr(3ξ)]C[Dab][Aun]-OH; thioether N-14) here?
Answer: 43.9 nM

Question: With `Cc1cccc(C[C@@H]2NC(=O)[C@H](CC(=O)O)NC(=O)[C@H](Cc3ccc(C(=O)O)cc3)NC(=O)[C@H](Cc3ccc(OCC(=O)O)cc3)NC(=O)CSC[C@@H](C(=O)N[C@@H](CCN)C(=O)NCCCCCCCCCCC(=O)O)NC(=O)[C@H](C(C)O)NC(=O)[C@H](C(C)C)NC(=O)[C@H](CC3CCCCC3)NC(=O)[C@H](CCN)NC(=O)[C@@H](CC(C)C)NC(=O)[C@H](C)N(C)C(=O)[C@H](C(C)C)NC(=O)[C@H](Cc3ccc(-c4ccccc4)cc3)NC(=O)[C@H](CC(C)C)NC2=O)c1` (stereo partly drawn) [Example 2323] ({CH2CO}-Y(Carboxymethyl)[Phe(4-COOH)]D[Phe(3-Me)]L[Bip]V[NMeA][dL][Dab][Cha]V[Thr(3ξ)]C[Dab][Aun]-OH; thioether N-14) as the molecule, how does the IC50 read?
Answer: 25.6 nM

Question: For `Cc1cccc(C[C@@H]2NC(=O)[C@H](CC(=O)O)NC(=O)[C@H](Cc3ccc(OCC(=O)O)cc3)NC(=O)[C@H](Cc3ccncc3)NC(=O)CSC[C@@H](C(=O)N[C@@H](CCCN)C(=O)N[C@@H](CO)C(=O)NCCCCCCCCCCCC(=O)O)NC(=O)[C@H](C(C)O)NC(=O)[C@H](C(C)C)NC(=O)[C@H](CC3CCCCC3)NC(=O)[C@H](CCN)NC(=O)[C@@H](CC(C)C)NC(=O)[C@H](C)N(C)C(=O)[C@H](CCCNC(=O)C3CC3)NC(=O)[C@H](Cc3ccc(-c4ccccc4)cc3)NC(=O)[C@H](Cc3ccc(O)cc3)NC2=O)c1` (stereo partly drawn) [Example 2403] ({CH2CO}-[4Pal]Y(Carboxymethyl)D[Phe(3-Me)]Y[Bip][Orn](Cyclopropanecarbonyl)[NMeA][dL][Dab][Cha]V[Thr(3ξ)]C[Orn]S[12Ado]-OH; thioether N-14), which IC50 is on record?
Answer: 47.9 nM

Question: For `CC(C)C[C@H]1NC(=O)[C@H](C)N(C)C(=O)[C@H](CCC(N)=O)NC(=O)[C@H](Cc2ccc(-c3ccccc3)cc2)NC(=O)[C@H](Cc2ccc(C(=O)O)cc2)NC(=O)[C@H](Cc2cccc(C(F)(F)F)c2)NC(=O)[C@H](CC(=O)O)NC(=O)[C@H](Cc2ccc(OCC(=O)O)cc2)NC(=O)[C@H](Cc2ccc(C(=O)O)cc2)NC(=O)CSC[C@@H](C(=O)N[C@@H](CCN)C(=O)NCCCCCCCCCCCCC(=O)O)NC(=O)[C@H](CC(=O)O)NC(=O)[C@H](C(C)(C)O)NC(=O)[C@H](CC2CCCCC2)NC(=O)[C@H](CCN)NC1=O` [Example 1142] ({CH2CO}-[Phe(4-COOH)]Y(Carboxymethyl)D[Phe(3-CF3)][Phe(4-COOH)][Bip]Q[NMeA][dL][Dab][Cha][Val(3-OH)]DC[Dab]-{NH(CH2)12COOH}; thioether N-14), which IC50 is on record?
Answer: 24.8 nM

Question: `Cc1cccc(C[C@@H]2NC(=O)[C@H](CC(=O)O)NC(=O)[C@H](Cc3ccc(OCC(=O)O)cc3)NC(=O)[C@H](CC(N)=O)NC(=O)CSC[C@@H](C(=O)N(C)CC(=O)NCCCCCCCCCCC(=O)O)NC(=O)[C@H](CCCNC(N)=O)NC(=O)[C@H](C(C)C)NC(=O)[C@H](CC3CCCCC3)NC(=O)[C@H](CCN)NC(=O)[C@@H](CC(C)C)NC(=O)[C@H](C)N(C)C(=O)[C@H](C(C)C)NC(=O)[C@H](Cc3ccc(-c4ccccc4)cc3)NC(=O)[C@H](C(C)C)NC2=O)c1` [Example 2261] ({CH2CO}-NY(Carboxymethyl)D[Phe(3-Me)]V[Bip]V[NMeA][dL][Dab][Cha]V[Cit]C[Sar][Aun]-OH; thioether N-14) was tested. Which IC50 did it give?
Answer: 25.8 nM

Question: For `Cc1cccc(C[C@@H]2NC(=O)[C@H](CC(=O)O)NC(=O)[C@H](Cc3ccc(OCC(=O)O)cc3)NC(=O)[C@H](C(C)O)NC(=O)CSC[C@@H](C(=O)N(C)[C@@H](CCC(=O)O)C(=O)NCCCCCCCCCCC(=O)O)NC(=O)[C@H](CO)NC(=O)[C@H](C(C)C)NC(=O)[C@H](CC3CCCCC3)NC(=O)[C@H](CCN)NC(=O)[C@@H](CC(C)C)NC(=O)[C@H](C)N(C)C(=O)[C@H](C(C)C)NC(=O)[C@H](Cc3ccc(-c4ccccc4)cc3)NC(=O)[C@H](C(C)C)NC2=O)c1` (stereo partly drawn) [Example 2299] ({CH2CO}-[Thr(3ξ)]Y(Carboxymethyl)D[Phe(3-Me)]V[Bip]V[NMeA][dL][Dab][Cha]VSC[NMeE][Aun]-OH; thioether N-14), which IC50 is on record?
Answer: 130 nM

Question: Which IC50 does the source give for `Cc1cccc(C[C@@H]2NC(=O)[C@H](CC(=O)O)NC(=O)[C@H](Cc3ccc(OCC(=O)O)cc3)NC(=O)[C@H]([C@@H](C)O)NC(=O)CSC[C@@H](C(=O)NC(CCN)C(=O)NCCOCCOCC(=O)NCCCCCCCCCCC(=O)O)NC(=O)[C@H](CCC(=O)O)NC(=O)[C@H](C(C)(C)O)NC(=O)[C@H](CC3CCCCC3)NC(=O)[C@H](CCN)NC(=O)[C@@H](CC(C)C)NC(=O)[C@H](C)N(C)C(=O)[C@H](Cc3ccc(OCC(=O)O)cc3)NC(=O)[C@H](Cc3ccc(-c4ccccc4)cc3)NC(=O)[C@H](Cc3ccc(C(=O)O)cc3)NC2=O)c1` (stereo partly drawn) [Example 1423] ({CH2CO}-TY(Carboxymethyl)D[Phe(3-Me)][Phe(4-COOH)][Bip]Y(Carboxymethyl)[NMeA][dL][Dab][Cha][Val(3-OH)]EC[ξDab][AEEA][Aun]-OH; thioether N-14) here?
Answer: 28.1 nM

Question: For `CC(C)C[C@@H]1NC(=O)[C@H](Cc2c[nH]c3ccccc23)NC(=O)[C@H](CC(=O)O)NC(=O)[C@H](Cc2ccc(OCC(=O)O)cc2)NC(=O)[C@H](Cc2ccncc2)NC(=O)CSC[C@@H](C(=O)N[C@@H](CCCN)C(=O)NCCOCCOCC(=O)NCCCCCCCCCCC(=O)O)NC(=O)[C@H](CO)NC(=O)[C@H](C(C)C)NC(=O)[C@H](CC2CCCCC2)NC(=O)[C@H](CCN)NC(=O)[C@@H](CC(C)C)NC(=O)[C@H](C)N(C)C(=O)[C@H](C(C)C)NC(=O)[C@H](Cc2ccc(-c3ccccc3)cc2)NC1=O` [Example 2142] ({CH2CO}-[4Pal]Y(Carboxymethyl)DWL[Bip]V[NMeA][dL][Dab][Cha]VSC[Orn][AEEA][Aun]-OH; thioether N-14), which IC50 is on record?
Answer: 11.6 nM

Same assay, conditions: PE-labeled PD-L1-Ig 20 nM final, Jurkat-hPD-1 cells; read-out: Jurkat HPD1 PDL1 IC50

Question: For `CC(C)C[C@H]1NC(=O)[C@H](C)N(C)C(=O)[C@H](CCC(N)=O)NC(=O)[C@H](Cc2ccc(-c3ccccc3)cc2)NC(=O)[C@H](Cc2ccc(OCC(=O)O)cc2)NC(=O)[C@H](Cc2cccc(C(F)(F)F)c2)NC(=O)[C@H](CC(=O)O)NC(=O)[C@H](Cc2ccc(OCC(=O)O)cc2)NC(=O)[C@H](C)NC(=O)CSC[C@@H](C(=O)N[C@@H](CCN)C(=O)NCCOCCOCC(=O)NCCOCCOCC(=O)N[C@H](CCC(=O)NCCCCCCCCCCCCCCC(=O)O)C(=O)O)NC(=O)[C@H](Cc2cnc[nH]2)NC(=O)[C@H](C(C)(C)O)NC(=O)[C@H](CC2CCCCC2)NC(=O)[C@H](CCN)NC1=O` [Example 2628] ({CH2CO}-AY(Carboxymethyl)D[Phe(3-CF3)]Y(Carboxymethyl)[Bip]Q[NMeA][dL][Dab][Cha][Val(3-OH)]HC[Dab][AEEA][AEEA][dE](NH(CH2)14COOH)-OH; thioether N-14), which IC50 is on record?
Answer: 247 nM

Question: `CC(C)C[C@H]1NC(=O)[C@H](C)N(C)C(=O)[C@H](Cc2ccc(C(=O)O)cc2)NC(=O)[C@H](Cc2ccc(-c3ccccc3)cc2)NC(=O)[C@H](Cc2ccc(C(=O)O)cc2)NC(=O)[C@H](Cc2cccc(C(F)(F)F)c2)NC(=O)[C@H](CC(=O)O)NC(=O)[C@H](Cc2ccc(C(=O)O)cc2)NC(=O)[C@H](C(C)O)NC(=O)CSC[C@@H](C(=O)N[C@@H](CCN)C(=O)NCCCCCCCCCCC(=O)O)NC(=O)[C@H](C(C)O)NC(=O)[C@H](C(C)(C)O)NC(=O)[C@H](CC2CCCCC2)NC(=O)[C@H](CCN)NC1=O` (stereo partly drawn) [Example 2573] ({CH2CO}-[Thr(3ξ)][Phe(4-COOH)]D[Phe(3-CF3)][Phe(4-COOH)][Bip][Phe(4-COOH)][NMeA][dL][Dab][Cha][Val(3-OH)][Thr(3ξ)]C[Dab][Aun]-OH; thioether N-14) was tested. Which IC50 did it give?
Answer: 9.7 nM

Question: Which IC50 does the source give for `Cc1cccc(C[C@@H]2NC(=O)[C@H](CC(=O)O)NC(=O)[C@H](Cc3ccc(C#N)cc3)NC(=O)[C@H](C(C)O)NC(=O)CSC[C@@H](C(=O)N[C@@H](CCN)C(=O)NCCOCCOCC(=O)NCCOCCOCC(=O)NCCCCCCCCCCC(=O)O)NC(=O)[C@H](CCC(=O)O)NC(=O)[C@H](C(C)C)NC(=O)[C@H](CC3CCCCC3)NC(=O)[C@H](CCN)NC(=O)[C@@H](CC(C)C)NC(=O)[C@H](C)N(C)C(=O)[C@H](Cc3ccc(OCC(=O)O)cc3)NC(=O)[C@H](Cc3ccc(-c4ccccc4)cc3)NC(=O)[C@H](Cc3cccc(F)c3)NC2=O)c1` (stereo partly drawn) [Example 2526] ({CH2CO}-[Thr(3ξ)][Phe(4-CN)]D[Phe(3-Me)][Phe(3-F)][Bip]Y(Carboxymethyl)[NMeA][dL][Dab][Cha]VEC[Dab][AEEA][AEEA][Aun]-OH; thioether N-14) here?
Answer: 16.9 nM
